# Results taken from patent publication US20050101542A1, “Combination therapy for controlling appetites” (Regents of the University of California, priority 2002, published 2005).
# “Also recorded” adds a separate entry of the source. Read-outs that look alike come from different tables or passages of the source.
# Key:
# [1] = Food intake in capsaicin-treated (sensory deafferented) rats, Example 2; format: in vivo, rat; settings: OEA 10 mg per kg i.p.
# Description: FAE were dissolved in dimethylsulphoxide (DMSO) and administered in 70% DMSO in sterile saline (acute treatments) Or 5% Tween 80/5% propylenglycol in sterile saline (subchronic treatments) (1 ml per kg, i.p.). Capsaicin was administered in 10% Tween 80/10% ethanol/80% saline; SR141716A, SR144528, CCK-8 and CP-93129 in 5% Tween 80/5% propylenglycol/90% saline (1 ml per kg, i.p.).
# [2] = Capsaicin sensory deafferentation and feeding, Example 8; format: in vivo, rat; settings: CCK-8 10 μg/kg, CP 93129 1, WIN 55,212-2 2, anandamide 2, SR141716A 3 mg/kg, i.p.
# Description: Capsaicin was administered subcutaneously (12.5 mg/ml, Kaneko, et al., Am. J. Physiol., 275:G1056-G1062 (1998)) in rats anesthetized with ethyl ether. The total dose of capsaicin (125 mg/kg) was divided into three injections (25 mg/kg in the morning and 50 mg/kg in the afternoon of the first day, 50 mg/kg on the 2nd day). Control rats received vehicle injections. […] Water intake (in ml/4 hr) was: vehicle 13.6±1.4; capsaicin rats 24.0±1.9, P<0.01 (n=12).
# The can was retired and intake was recorded.
# [3] = Acute feeding experiments in free-feeding mice (C57BL/6J, wild-type, PPARα-null); format: in vivo, mouse; settings: for meal pattern analysis (eating latency, meal size, post-meal interval): C57BL/6J mice; for food intake in C57BL/6J mice: i.p., Wy-14643 40, GW7647 20, clofibrate 25-100, GW501516 1-10, ciglitazone 15 mg kg^−1; for feeding in PPARα-deficient mice: OEA 10, Wy-14643 40, d-fenfluramine 4 mg-kg^−1, CCK-8 25 μg-kg^−1, i.p.
# Description: Acute experiments. Drugs or appropriate vehicles (saline, for CCK-8 and d-fenfluramine; dimethylsulfoxide/saline, 70/30, for all other agents; 4 ml-kg^−1; i.p.) were administered at 5:00-5:30 PM to free-feeding mice, which were habituated to the experimental setting.
# [4] = Acute food intake in 24-h food-deprived rats, i.p. dosing; format: in vivo, rat; settings: 24-h food-deprived rats, i.p.
# Description: Feeding experiments. Acute experiments. Food intake was measured in 24-h food-deprived rats (Navarro, et al., J. Neurochem., 67:1982-1991 (1996)), administering drugs 15 min before food presentation. Subchronic experiments. Ad libitum fed rats received vehicle injections for three days. On day four, the animals were divided in two equal groups and gave them daily injections of vehicle or OEA (5 mg per kg at 1900 h) for 7 consecutive days, while measuring body weight, food intake and water intake.
# The effects of systemically administered OEA or an OEA-like compound or OEA-like modulator on food intake in rats can be assessed using a 24 h fast. […] To define the selectivity of this response, various OEA analogs were evaluated for their ability to produce hypophagia.
# Soleus muscle = assay: [14C]oleate oxidation to CO2 in soleus muscle; format: cell-based, rat
# Description: This example illustrates the effect of OEA on fat metabolism and methods for studying the same. Oleoylethanolamide (OEA) decreases body weight not only by suppressing appetite, but also by possibly enhancing body fat catabolism. The effects of OEA on fatty acid oxidation in major body-fat burning tissues (soleus muscle, liver, cultured cardiac myocytes and astrocytes) was examined. […] In addition, OEA induces a significant mobilization of triacylglycerol stores from primary white adipose tissue cells. Table 4 details the methods and effects of OEA on fatty acid oxidation in these cells. Structure-activity relationship experiments provide evidence that the effect of OEA on skeletal muscle fatty acid oxidation is specific (FIG. 8).
# Open field test = format: in vivo, rat
# Description: Rats were habituated to the field for 10 min the day before testing. On the experimental day, the animals were placed in the center of the field and locomotor activity (number of lines crossed) and exploratory behavior (number of rearings and time spent in the center of the field) were scored for 5 min. All the experiments were performed 60 min after drug injections, and behavior was scored by trained observers blind to experimental conditions.
# [5] = Food intake studies in food-deprived or partially satiated rats (i.p. or i.c.v.), Example 8; settings: for food intake in partially satiated rats, systemic (i.p.) administration: 24 h food-deprived, allowed to eat 60 min before drug; for food intake in 24 h food-deprived rats, systemic (i.p.) administration: anandamide or WIN 55,212-2 0.1-2 mg/kg
# Description: (§4) Drugs were administered by i.p. injection 15 min prior to food presentation in a volume of 1 ml/kg. For i.c.v. administration the obturator was removed from the guide cannula and an 8-mm injector (30-gauge stainless steel tubing) that was connected to 70 cm of calibrated polyethylene-10 tubing was lowered into the ventricle. The tubing was then raised until flow began and 5 μl of drug solution were infused over a 30-60 s period. The injector was left in the guide cannula for additional 30 s and then removed. The stylet was immediately replaced. Animals were tested 5 min after injections. The i.c.v. cannula placements were evaluated after each experiment by dye injection. Only those rats with proper i.c.v. placements were included in the data analysis.
# (§5) The animals were then food-deprived for 24 h, with free access to water. 15 min after drug administration, the animals were returned to their home cage, where a can with a measured amount of food (usually 30-40 g) a bottle containing 250 ml of fresh water were placed. Food pellets and food spillage were weighed at 60,120 and 240 min after starting the test, and the amount of food eaten was recorded. At the end of the test, the amount of water consumed was also measured. For partial satiation of animals, 24 h food-deprived rats were allowed to eat from the can during 1 h. The can was retired and intake was recorded. 15 min after drug injections, the food was again presented, and the amount consumed was recorded hourly for the following 4 h.
# [6] = Food intake in vagotomized or capsaicin-treated rats, Example 3; format: in vivo, rat; settings: for food intake 30 min / food intake 60 min / food intake 120 min / food intake 240 min: 24-h food-deprived, Wy-14643 40 mg kg^−1 i.p.; for food intake after vagotomy or capsaicin treatment: rats, OEA 10, Wy-14643 40 mg kg^−1 i.p.
# PPAR-α-regulated genes = assay: Real time quantitative PCR of gene expression in mouse intestine and liver; format: in vivo; settings: for expression of PPAR-α-regulated genes (PPAR-α, FAT/CD36, FATP1): jejunum of wild-type mice, OEA or oleic acid 10, Wy-14643 30 mg kg^−1 i.p.
# Description: (§1) Tissues were stored in RnaLater™ (Ambion), extracted total RNA with TRIzol™ (Invitrogen) and quantified it with Ribogreen™ (Molecular Probes). cDNA was synthesized by using SuperscriptII RNase H-reverse transcriptase (Invitrogen).
# (§2) Reverse transcription of total RNA (2 μg) was performed using Oligo(dT)12-18 primer (0.2 μg) for 50 min at 42° C. Real Time Quantitative (RTQ) PCR was conducted using an ABI PRISM 7700 sequence detection system (Applied Biosystems). Primer/probe sets were designed using the Primer Express™ software and gene sequences available from the Genebank™ database. Primers and fluorogenic probes were synthesized by TIB (Adelphia). The primer/probe sequences for the mouse genes were:
# (§3) RNA levels were normalized by using glyceraldehyde 3-phosphate dehydrogenase (GAPDH) as an internal standard. mRNA levels were measured by generating six-point serial standard curves using mouse total RNA. Estimates of relative mRNA abundance (in arbitrary units) were made by using the CT value (Schmittgen et al., 2000). Relative quantifications of RNAs of interest were made by using the 2^ΔCT formula, in which ΔCT was calculated by subtracting the CT value for GAPDH from the CT value for the gene of interest. This formula was validated for each primer/probe set by using six-point serial standard curves.
# iNOS = assay: Transrepression of iNOS expression in mouse jejunum; format: in vivo; settings: jejunum of C57BL/6J mice; OEA or oleic acid 10, Wy-14643 30 mg kg^−1 i.p.
# Description: as §1, §2, §3
# human PPARα = biological target: T1, human PPARα (Homo sapiens, UniProt Q07869); assay: GAL4 chimeric receptor transactivation assay in HeLa cells, PPARα; format: cell-based; settings: for PPARα activation: HeLa transactivation assay
# T1 construct: expressed in transfected cells; host or cells: HeLa (clonal reporter line HLR, stably transfected with pFA-PPARα)
# T1 sequence (Q07869 239-466 limits assumed): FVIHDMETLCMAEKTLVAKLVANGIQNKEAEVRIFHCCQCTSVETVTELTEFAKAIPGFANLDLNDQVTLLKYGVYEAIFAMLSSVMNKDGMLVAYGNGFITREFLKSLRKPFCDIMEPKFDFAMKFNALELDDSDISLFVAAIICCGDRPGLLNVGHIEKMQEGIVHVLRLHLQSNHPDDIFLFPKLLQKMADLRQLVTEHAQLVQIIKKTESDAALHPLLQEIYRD
# Description: Eighteen hours following transfection, the culture media was replaced with supplemented DMEM containing hygromycin (100 μg-ml^−1, Calbiochem). After 4 weeks in culture, the surviving clones were isolated and analyzed by luciferase assay. […] The cells were cultured in supplemented DMEM containing hygromycin and G418. For transactivation assays, cells were seeded in 6-well plates (50,000 cells per well) and incubated for 7 hours in supplemented DMEM containing hygromycin and G418, plus appropriate concentrations of test compounds. Dual-luciferase reporter assay system (Promega) and an MLX Microtiter® plate luminometer (Dynex) were used to determine luciferase activity in cell lysates.
# [7] = rat, in vivo
# Description: as §4, §5
compound,measurement,setting,value
O=c1ccc2[nH]cc(C3=CCNCC3)c2[nH]1 [CP-93129],feeding response in capsaicin-treated rats,[1],responded normally
same,effect of capsaicin treatment on the drug's feeding response,[2],not
"CC(C)(Sc1ccc(CCN(CCCCC2CCCCC2)C(=O)NC2CCCCC2)cc1)C(=O)O [GW7647, 2-(4-{2-[3-Cyclohexyl-1-(4-cyclohexyl-butyl)-ureido]-ethyl}-phenylsulfanyl)-2-methyl-propionic acid]","meal pattern analysis (eating latency, meal size, post-meal interval)",[3],selective prolongation of eating latency
same,food intake in C57BL/6J mice,[3],inhibited food intake
"Cc1cc(SCc2sc(-c3ccc(C(F)(F)F)cc3)nc2C)ccc1OCC(=O)O [GW501516, [2-Methyl-4-[4-methyl-2-(4-trifluoromethyl-phenyl)-thiazol-5-ylmethylsulfanyl]-phenoxy}-acetic acid]",food intake in C57BL/6J mice,[3],did not affect feeding; also recorded: Lack of effect
"CCCCCCCCCCCCCCCC(=O)NCCO [Palmitoylethanolamide, palmitoylethanolamide]",food intake (hypophagia),[4],active but significantly less potent than OEA
same,mimicry of the OEA effect on skeletal muscle fatty acid oxidation,Soleus muscle,only partially
"Cc1c(C(=O)NN2CCCCC2)nn(-c2ccc(Cl)cc2Cl)c1-c1ccc(Cl)cc1 [SR141716A, N-piperidino-5-(4-chlorophenyl)-1-(2,4-dichlorophenyl)-4-methylpyrazole-3-carboxamide]",rearing frequency in the open field,"Open field test; i.c.v. SR141716A 10 μg, i.c.v. vehicle 16.6±3.1",4.9±1.1 number of events per 5 min
same,rearing frequency in the open field,"Open field test; i.p. SR141716A 3 mg/kg, i.p. vehicle 17.9±2.3",9.4±2.0 number of events per 5 min
same,exploratory behavior in the open field,Open field test; irrespective of the administration route,reduced exploratory behavior
same,effect of capsaicin treatment on the drug's feeding response,[2],loss and abolishes the reduction of food intake
same,"food intake in partially satiated rats, systemic (i.p.) administration",[5],dose-dependent reduction of food intake
same,"food intake in 24 h food-deprived rats, systemic (i.p.) administration",[5],dose-dependent reduction of food intake; also recorded: reduced food intake
same,food intake after central (i.c.v.) administration,[5],no effect; also recorded: did not affect food intake
"Cc1c(C(=O)c2cccc3ccccc23)c2cccc3c2n1[C@H](CN1CCOCC1)CO3 [WIN 55,212-2]",effect of capsaicin treatment on the drug's feeding response,[2],loss of the hyperphagic effects; also recorded: did not produce hyperphagia
same,motor effect at the highest central dose,[5]; 10 μg i.c.v.,motor impairment
same,immobility,[5]; 10 mg/kg i.p.,profound immobility
same,"food intake in partially satiated rats, systemic (i.p.) administration",[5],significant and prolonged hyperphagia; also recorded: promoted hyperphagia
same,"food intake in 24 h food-deprived rats, systemic (i.p.) administration",[5],no effect
same,food intake after central (i.c.v.) administration,[5],no effect on feeding
Cc1cccc(Nc2cc(Cl)nc(SCC(=O)O)n2)c1C [Wy-14643],food intake 30 min,[6]; capsaicin-treated rats,2.2 ± 1.2
same,food intake 60 min,[6]; capsaicin-treated rats,3.7 ± 1.6
same,food intake 120 min,[6]; capsaicin-treated rats,4.9 ± 1.5
same,food intake 240 min,[6]; capsaicin-treated rats,7.8 ± 1.9
same,food intake 30 min,[6]; control rats,2.3 ± 1.3
same,food intake 60 min,[6]; control rats,3.6 ± 1.2
same,food intake 120 min,[6]; control rats,5.8 ± 1.3
same,food intake 240 min,[6]; control rats,6.4 ± 1.8
same,food intake after vagotomy or capsaicin treatment,[6],prevented the hypophagic effects
same,"expression of PPAR-α-regulated genes (PPAR-α, FAT/CD36, FATP1)",PPAR-α-regulated genes,mimicked the effects of OEA
same,gene expression in mice deficient in PPAR-α,"PPAR-α-regulated genes; jejunum, OEA 10, Wy-14643 30 mg kg^−1 i.p.",did not stimulate gene expression
same,iNOS expression,iNOS,significantly decreased
same,"meal pattern analysis (eating latency, meal size, post-meal interval)",[3],selective prolongation of eating latency
same,feeding in PPARα-deficient mice,[3],did not respond
same,food intake in C57BL/6J mice,[3],inhibited food intake
"CCCCC/C=C\C/C=C\C/C=C\C/C=C\CCCC(=O)NCCO [anandamide, arachidonylethanolamide]",PPARα activation,human PPARα,ineffective
same,food intake (hypophagia),[4],no effect
same,motor effect at the highest central dose,[7],motor impairment
same,effect of capsaicin treatment on the drug's feeding response,[2],loss of the hyperphagic effects
same,mimicry of the OEA effect on skeletal muscle fatty acid oxidation,Soleus muscle,not
same,"food intake in partially satiated rats, systemic (i.p.) administration",[5],significant and prolonged hyperphagia
same,"food intake in partially satiated rats, systemic (i.p.) administration",[5]; listed as Anandamide,elicited hyperphagia
same,"food intake in 24 h food-deprived rats, systemic (i.p.) administration",[5],no effect
same,food intake after central (i.c.v.) administration,[5],no effect on feeding
same,food intake after central (i.c.v.) administration,[5]; listed as Anandamide,no effect
"CCOC(=O)C(C)(C)Oc1ccc(Cl)cc1 [clofibrate, 2-(4-chlorophenoxy)-2-methylpropanoic acid, ethyl ester]",food intake in C57BL/6J mice,[3],did not
CCN[C@@H](C)Cc1cccc(C(F)(F)F)c1 [d-fenfluramine],food intake after vagotomy or capsaicin treatment,[6],not
same,feeding in PPARα-deficient mice,[3],responded normally
CCCCCCCCCCCCCC(=O)NCCO [myristylethanolamide],PPARα activation,human PPARα,ineffective
CCCCCCCC/C=C\CCCCCCCC(=O)O [oleic acid],EC50,human PPARα,10.3 ± 0.21 µM
same,food intake (hypophagia),[4],no effect
same,mimicry of the OEA effect on skeletal muscle fatty acid oxidation,Soleus muscle,not
same,"expression of PPAR-α-regulated genes (PPAR-α, FAT/CD36, FATP1)",PPAR-α-regulated genes,not
same,iNOS expression,iNOS,ineffective
CCCCCCCCCCCCCCCCCC(=O)NCCO [stearylethanolamide],PPARα activation,human PPARα,did not elicit a response
CCK-8,feeding response in capsaicin-treated rats,[1],failed to respond
same,effect of capsaicin treatment on the drug's feeding response,[2],abolished the anorexic response; also recorded: abolished the anorexic effect
same,feeding in PPARα-deficient mice,[3],responded normally
